Measurements taken from BindingDB's records for doi:10.1021/jm00111a038 (Ici Pharmaceuticals Group, 1991).

Assay: Inhibition of 5-lipoxygenase in human whole blood.

| IC50 | Structure (SMILES) |
| --- | --- |
| 6.3 µM | CCCCCCCCCCOc1cccc(C(O)c2ncc(C)[nH]2)c1 (stereo not drawn) |
| 7 µM | Cc1cnc(C(O)c2cccc(OCc3ccc(-c4ccccc4)cc3)c2)[nH]1 (stereo not drawn) |
| 5.1 µM | OC(c1cccc(OCc2ccc3ccccc3c2)c1)c1nccs1 (stereo not drawn) |
